# Measurements published in ChEMBL document CHEMBL4622945, “Synthesis and antiproliferative activity of C- and N-terminal analogues of culicinin D” (Bioorg Med Chem Lett, 2020).
# Square brackets hold non-standard residues; d marks the D form. Peptide text beside a SMILES is read from it. * marks the point of attachment. NH((S)CH(Me)CH2NHC2H4OH) = C[C@@H](CNCCO)N*; Alaψ(CH2NMeCH2CH2OH) = C[C@@H](CN(C)CCO)N*; NH((S)CH(Me)CH2NMe2) = C[C@@H](CN(C)C)N*; NH((S)CH(CH3)CH2NHMe) = CNC[C@H](C)N*; Gly(octyl) = CCCCCCCC[C@H](N)C(=O)O; X5 = C[C@@H](N*)[C@@H](O)c1ccccc1; Hyp = O=C(O)[C@@H]1C[C@@H](O)CN1; Cha = N[C@@H](CC1CCCCC1)C(=O)O; Phe(ol) = N[C@H](CO)Cc1ccccc1; Lauroyl = CCCCCCCCCCCC(=O)*; Decanoyl = CCCCCCCCCC(=O)*; Pip = O=C(O)[C@@H]1CCCCN1; X1 = C[C@@H](CN1CCNCC1)N*; X2 = C[C@@H](CN1CCOCC1)N*; Octanoyl = CCCCCCCC(=O)*; Hexanoyl = CCCCCC(=O)*; Alaol = C[C@@H](CO)N*; NHCH2CH2NHMe = CNCCN*; Aib = CC(C)(N)C(=O)O; X3 = C[C@H](CNCCO)N*; Butyryl = CCCC(=O)*; NHCH2CH2OH = OCCN*; βAla = NCCC(=O)O; X4 = OCCNCCN*
# Legend:
# Assay type in all cases: functional, cell-based
# T47D = assay: Antiproliferative activity against human T47D cells assessed as reduction in cell growth by SRB assay
# SK-BR-3 = assay: Antiproliferative activity against human SKBR3 cells assessed as reduction in cell growth by SRB assay
# MDA-MB-468 = assay: Antiproliferative activity against human MDA-MB-468 cells assessed as reduction in cell growth by SRB assay
# NCI-H460 = assay: Antiproliferative activity against human NCI-H460 cells assessed as reduction in cell growth by SRB assay
IC50 (T47D) [nM],IC50 (SK-BR-3) [nM],IC50 (MDA-MB-468) [nM],IC50 (NCI-H460) [nM],SMILES
5,10,3,2,CCCCCCCC[C@H](NC(=O)C(C)(C)NC(=O)C(C)(C)NC(=O)[C@H](CC1CCCCC1)NC(=O)[C@H](C)NC(=O)CCC)C(=O)N[C@@H](CC(C)C)C(=O)NC(C)(C)C(=O)N[C@@H](CC(C)C)C(=O)NCCC(=O)N[C@@H](C)CNCCO (Butyryl-A[Cha][Aib][Aib][Gly(octyl)]L[Aib]L[βAla]-{NH((S)CH(Me)CH2NHC2H4OH)})
> 1000,> 1000,> 1000,> 1000,CCCCCCCC[C@H](NC(=O)C(C)(C)NC(=O)C(C)(C)NC(=O)[C@H](CC1CCCCC1)NC(=O)[C@@H]1CCCN1C(=O)CCC)C(=O)N[C@@H](CC(C)C)C(=O)NC(C)(C)C(=O)N[C@@H](CC(C)C)C(=O)NCCC(=O)O (Butyryl-P[Cha][Aib][Aib][Gly(octyl)]L[Aib]L[βAla]-OH)
31,205,31,50,CCCCCCCC[C@H](NC(=O)C(C)(C)NC(=O)C(C)(C)NC(=O)[C@H](CC1CCCCC1)NC(=O)[C@@H]1CCCN1C(=O)CCC)C(=O)N[C@@H](CC(C)C)C(=O)NC(C)(C)C(=O)N[C@@H](CC(C)C)C(=O)NCCC(=O)N[C@H](C)CNCCO (Butyryl-P[Cha][Aib][Aib][Gly(octyl)]L[Aib]L[βAla]-X3)
15,67,10,17,CCCCCCCC[C@H](NC(=O)C(C)(C)NC(=O)C(C)(C)NC(=O)[C@H](CC1CCCCC1)NC(=O)[C@@H]1CCCN1C(=O)CCC)C(=O)N[C@@H](CC(C)C)C(=O)NC(C)(C)C(=O)N[C@@H](CC(C)C)C(=O)NCCC(=O)NCCNCCO (Butyryl-P[Cha][Aib][Aib][Gly(octyl)]L[Aib]L[βAla]-X4)
3,8,2,2,CCCCCCCC[C@H](NC(=O)C(C)(C)NC(=O)C(C)(C)NC(=O)[C@H](CC1CCCCC1)NC(=O)[C@@H]1CCCN1C(=O)CCC)C(=O)N[C@@H](CC(C)C)C(=O)NC(C)(C)C(=O)N[C@@H](CC(C)C)C(=O)NCCC(=O)N[C@@H](C)CN(C)CCO (Butyryl-P[Cha][Aib][Aib][Gly(octyl)]L[Aib]L[βAla]-{Alaψ(CH2NMeCH2CH2OH)})
6,10,4,4,CCCCCCCC[C@H](NC(=O)C(C)(C)NC(=O)C(C)(C)NC(=O)[C@H](CC1CCCCC1)NC(=O)[C@@H]1CCCN1C(=O)CCC)C(=O)N[C@@H](CC(C)C)C(=O)NC(C)(C)C(=O)N[C@@H](CC(C)C)C(=O)NCCC(=O)N[C@@H](C)CN(C)C (Butyryl-P[Cha][Aib][Aib][Gly(octyl)]L[Aib]L[βAla]-{NH((S)CH(Me)CH2NMe2)})
38,124,37,40,CCCCCCCC[C@H](NC(=O)C(C)(C)NC(=O)C(C)(C)NC(=O)[C@H](CC1CCCCC1)NC(=O)[C@@H]1C[C@@H](O)CN1C(=O)CCC)C(=O)N[C@@H](CC(C)C)C(=O)NC(C)(C)C(=O)N[C@@H](CC(C)C)C(=O)NCCC(=O)N[C@@H](C)CNCCO (Butyryl-[Hyp][Cha][Aib][Aib][Gly(octyl)]L[Aib]L[βAla]-{NH((S)CH(Me)CH2NHC2H4OH)})
13,20,6,9,CCCCCCCCCC(=O)N1CCC[C@H]1C(=O)N[C@@H](CC1CCCCC1)C(=O)NC(C)(C)C(=O)NC(C)(C)C(=O)N[C@@H](CCCCCCCC)C(=O)N[C@@H](CC(C)C)C(=O)NC(C)(C)C(=O)N[C@@H](CC(C)C)C(=O)NCCC(=O)N[C@@H](C)CNCCO (Decanoyl-P[Cha][Aib][Aib][Gly(octyl)]L[Aib]L[βAla]-{NH((S)CH(Me)CH2NHC2H4OH)})
13,57,10,9,CCCCCCCC[C@H](NC(=O)C(C)(C)NC(=O)C(C)(C)NC(=O)[C@H](CC1CCCCC1)NC(=O)[C@@H]1CCCN1)C(=O)N[C@@H](CC(C)C)C(=O)NC(C)(C)C(=O)N[C@@H](CC(C)C)C(=O)NCCC(=O)N[C@@H](C)CNCCO (H-P[Cha][Aib][Aib][Gly(octyl)]L[Aib]L[βAla]-{NH((S)CH(Me)CH2NHC2H4OH)})
7,18,5,4,CCCCCCCC[C@H](NC(=O)C(C)(C)NC(=O)C(C)(C)NC(=O)[C@H](CC1CCCCC1)NC(=O)[C@@H]1CCCN1C(=O)CCCCC)C(=O)N[C@@H](CC(C)C)C(=O)NC(C)(C)C(=O)N[C@@H](CC(C)C)C(=O)NCCC(=O)N[C@@H](C)CNCCO (Hexanoyl-P[Cha][Aib][Aib][Gly(octyl)]L[Aib]L[βAla]-{NH((S)CH(Me)CH2NHC2H4OH)})
63,73,23,37,CCCCCCCCCCCC(=O)N1CCC[C@H]1C(=O)N[C@@H](CC1CCCCC1)C(=O)NC(C)(C)C(=O)NC(C)(C)C(=O)N[C@@H](CCCCCCCC)C(=O)N[C@@H](CC(C)C)C(=O)NC(C)(C)C(=O)N[C@@H](CC(C)C)C(=O)NCCC(=O)N[C@@H](C)CNCCO (Lauroyl-P[Cha][Aib][Aib][Gly(octyl)]L[Aib]L[βAla]-{NH((S)CH(Me)CH2NHC2H4OH)})

# The remaining lines, values behind:
SMILES,IC50 (T47D) [nM],IC50 (SK-BR-3) [nM],IC50 (MDA-MB-468) [nM],IC50 (NCI-H460) [nM]
CCCCCCCC[C@H](NC(=O)C(C)(C)NC(=O)C(C)(C)NC(=O)[C@H](CC1CCCCC1)NC(=O)[C@@H]1CCCN1C(C)=O)C(=O)N[C@@H](CC(C)C)C(=O)NC(C)(C)C(=O)N[C@@H](CC(C)C)C(=O)NCCC(=O)N[C@@H](C)CNCCO (Ac-P[Cha][Aib][Aib][Gly(octyl)]L[Aib]L[βAla]-{NH((S)CH(Me)CH2NHC2H4OH)}),15,52,13,11
CCCCCCCC[C@H](NC(=O)C(C)(C)NC(=O)C(C)(C)NC(=O)[C@H](CC1CCCCC1)NC(=O)[C@@H]1CCCN1C(=O)CCC)C(=O)N[C@@H](CC(C)C)C(=O)NC(C)(C)C(=O)N[C@@H](CC(C)C)C(=O)NCCC(=O)N[C@@H](C)CO (Butyryl-P[Cha][Aib][Aib][Gly(octyl)]L[Aib]L[βAla]-Alaol),490,509,336,130
CCCCCCCC[C@H](NC(=O)C(C)(C)NC(=O)C(C)(C)NC(=O)[C@H](CC1CCCCC1)NC(=O)[C@@H]1CCCN1C(=O)CCC)C(=O)N[C@@H](CC(C)C)C(=O)NC(C)(C)C(=O)N[C@@H](CC(C)C)C(=O)NCCC(=O)NCCNC (Butyryl-P[Cha][Aib][Aib][Gly(octyl)]L[Aib]L[βAla]-NHCH2CH2NHMe),8,27,5,10
CCCCCCCC[C@H](NC(=O)C(C)(C)NC(=O)C(C)(C)NC(=O)[C@H](CC1CCCCC1)NC(=O)[C@@H]1CCCN1C(=O)CCC)C(=O)N[C@@H](CC(C)C)C(=O)NC(C)(C)C(=O)N[C@@H](CC(C)C)C(=O)NCCC(=O)NCCO (Butyryl-P[Cha][Aib][Aib][Gly(octyl)]L[Aib]L[βAla]-NHCH2CH2OH),767,512,363,223
CCCCCCCC[C@H](NC(=O)C(C)(C)NC(=O)C(C)(C)NC(=O)[C@H](CC1CCCCC1)NC(=O)[C@@H]1CCCN1C(=O)CCC)C(=O)N[C@@H](CC(C)C)C(=O)NC(C)(C)C(=O)N[C@@H](CC(C)C)C(=O)NCCC(=O)N[C@@H](C)CN1CCNCC1 (Butyryl-P[Cha][Aib][Aib][Gly(octyl)]L[Aib]L[βAla]-X1),> 1000,> 1000,> 1000,> 1000
CCCCCCCC[C@H](NC(=O)C(C)(C)NC(=O)C(C)(C)NC(=O)[C@H](CC1CCCCC1)NC(=O)[C@@H]1CCCN1C(=O)CCC)C(=O)N[C@@H](CC(C)C)C(=O)NC(C)(C)C(=O)N[C@@H](CC(C)C)C(=O)NCCC(=O)N[C@@H](C)CN1CCOCC1 (Butyryl-P[Cha][Aib][Aib][Gly(octyl)]L[Aib]L[βAla]-X2),36,99,59,34
CCCCCCCC[C@H](NC(=O)C(C)(C)NC(=O)C(C)(C)NC(=O)[C@H](CC1CCCCC1)NC(=O)[C@@H]1CCCN1C(=O)CCC)C(=O)N[C@@H](CC(C)C)C(=O)NC(C)(C)C(=O)N[C@@H](CC(C)C)C(=O)NCCC(=O)N[C@H](C)[C@@H](O)c1ccccc1 (Butyryl-P[Cha][Aib][Aib][Gly(octyl)]L[Aib]L[βAla]-X5),471,344,242,89
CCCCCCCC[C@H](NC(=O)C(C)(C)NC(=O)C(C)(C)NC(=O)[C@H](CC1CCCCC1)NC(=O)[C@@H]1CCCN1C(=O)CCC)C(=O)N[C@@H](CC(C)C)C(=O)NC(C)(C)C(=O)N[C@@H](CC(C)C)C(=O)NCCC(=O)N[C@@H](C)CNC (Butyryl-P[Cha][Aib][Aib][Gly(octyl)]L[Aib]L[βAla]-{NH((S)CH(CH3)CH2NHMe)}),5,13,3,3
CCCCCCCC[C@H](NC(=O)C(C)(C)NC(=O)C(C)(C)NC(=O)[C@H](CC1CCCCC1)NC(=O)[C@@H]1CCCN1C(=O)CCC)C(=O)N[C@@H](CC(C)C)C(=O)NC(C)(C)C(=O)N[C@@H](CC(C)C)C(=O)NCCC(=O)N[C@H](CO)Cc1ccccc1 (Butyryl-P[Cha][Aib][Aib][Gly(octyl)]L[Aib]L[βAla][Phe(ol)]),247,178,144,45
CCCCCCCC[C@H](NC(=O)C(C)(C)NC(=O)C(C)(C)NC(=O)[C@H](CC1CCCCC1)NC(=O)[C@@H]1CCCCN1C(=O)CCC)C(=O)N[C@@H](CC(C)C)C(=O)NC(C)(C)C(=O)N[C@@H](CC(C)C)C(=O)NCCC(=O)N[C@@H](C)CNCCO (Butyryl-[Pip][Cha][Aib][Aib][Gly(octyl)]L[Aib]L[βAla]-{NH((S)CH(Me)CH2NHC2H4OH)}),11,34,11,9
CCCCCCCC[C@H](NC(=O)C(C)(C)NC(=O)C(C)(C)NC(=O)[C@H](CC1CCCCC1)NC(=O)[C@@H]1CCCN1C(=O)CCCCCCC)C(=O)N[C@@H](CC(C)C)C(=O)NC(C)(C)C(=O)N[C@@H](CC(C)C)C(=O)NCCC(=O)N[C@@H](C)CNCCO (Octanoyl-P[Cha][Aib][Aib][Gly(octyl)]L[Aib]L[βAla]-{NH((S)CH(Me)CH2NHC2H4OH)}),7,15,4,4
